Assays:
[1] = Transformed response potentiometric titration of cocaine (ligand) with titrants; assay type: binding; conditions: for Ka: 1 mM MES buffer pH 7.0, mean of n electrodes
[2] = tested on: Cocaine Binding Aptamer (CBA); assay: Transformed response potentiometric titration of different ligands with CBA as titrant (cross-reactivity); conditions: for Ka: Post-EP method, 10^−5 M ligand in 1 mM MES buffer pH 7, CBA as titrant

25-mer-DNA: randomly chosen non-specific oligonucleotide, likely SEQ ID NO: 2 (DNA AAAATATCATCTTTGGTGTTTCCTA; DNA, backbone and methylation of C not given here)
Ka ([1]; Post-EP (PEP) method): 24000 M⁻¹
specific interaction with cocaine (in words) ([1]; comparison of titration curves and Ka values): little or no specific interaction

Clc1ccc([B-](c2ccc(Cl)cc2)(c2ccc(Cl)cc2)c2ccc(Cl)cc2)cc1 [TCPB, tetrakis (4-chlorophenyl)borate]
Ka ([1]; Equivalence Point (EP) method): 3e+09 M⁻¹
Ka ([1]; Post-EP (PEP) method): 9e+09 M⁻¹

CN(Cc1cc(Br)cc(Br)c1N)C1CCCCC1 [bromhexine]
Ka [2]: 570000 M⁻¹

CCN(CC)CC(=O)Nc1c(C)cccc1C [lidocaine]
Ka [2]: 100000 M⁻¹

CN1C[C@H](CNC(=O)OCc2ccccc2)C[C@@H]2c3cccc4c3c(cn4C)C[C@H]21 [metergoline]
Ka [2]: 3.3e+06 M⁻¹
interaction with CBA (in words) ([2]; cross-reactivity compared with cocaine): better interaction with metergoline than with cocaine

CBA: Cocaine Binding Aptamer, sequence SEQ ID NO: 1, 43 bases (DNA ATCTCGGGACGACAGGATTTTCCTCAATGAAGTGGGTCGTCCC; DNA, backbone not given here)
Kd ([1]; Post-EP method, n=6 electrodes): 1.1 µM

B1: CAPBA: Chloramphenicol Binding Aptamer, sequence SEQ ID NO: 3 (nucleic acid)
DNA: AGCAGCACAGAGGTCAGATGACTTCAGTGAGTTGTCCCACGGTCGGCGAGTCGGTGGTAGCCTATGCGTGCTACCGTGAA
modifications: DNA, backbone and methylation of C not given here
Ka ([1]; Post-EP (PEP) method): 47000 M⁻¹

Reference: patent US11614423B2, “Transformed response potentiometric titrations” (UNIVERSITEIT ANTWERPEN, priority 2014, dated 2023)
